The structures appear in SMILES notation.

Here are results for 5 compounds from patent US20230219904A1 (SYNGENTA CROP PROTECTION AG, priority 2020, published 2023).

Assay type in all cases: in vivo
Common to all, as to details: evaluated after 13 days

Assay [1] deals with Amaranthus retoflexus (AMARE). The assay is described as follows: Pre-emergence herbicidal glasshouse test (Table B1). An outline of the steps: (§1)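 Plants were grown in standard soil under controlled glasshouse conditions (24/16° C, 14 hours light, 65% humidity) and treated by spraying at 500 g/h unless otherwise indicated. Percentage damage was evaluated after 13 days and expressed on a five-point scale.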

In assay [2] the test system is Setaria faberi (SETFA). Described as above. In a few lines: as §1
Assay [3] deals with Echinochloa crus-galh (ECHCG). The description is as above. In a few lines: as §1
Assay [4] deals with Abutilon theophrasti (ABUTH). The assay is described as above. An outline of the steps:
as §1

Assay [5] has as its system Ipomoea hederacea (IPOHE). Described as above. An outline of the steps:
as §1

Assay [6] relates to Amaranthus retoflexus (AMARE). Briefly: Post-emergence herbicidal glasshouse test (Table B1). An outline of the steps:
as §1

Assay [7] deals with Setaria faberi (SETFA). The description is as above. An outline of the steps: as §1
Assay [8] has as its system Echinochloa crus-galh (ECHCG). The assay is described as above. An outline of the steps:
as §1

In assay [9] the test system is Abutilon theophrasti (ABUTH). Described as above. In a few lines:
as §1

For assay [10], the system named is Ipomoea hederacea (IPOHE). The description is as above. In a few lines:
as §1

`CCn1nnnc1NC(=O)c1ccc(OC(F)F)c(NC(=O)CC2CC2)c1Cl` [Compound 1.131]: the “PRE Application AMARE, percentage damage on five-point scale” value (“PRE Application AMARE, percentage damage” below) in assay [1] (applied at 500 g/h) is 5 (5=80-100%). In the assay on Setaria faberi (SETFA) [2] (applied at 500 g/h), the “PRE Application SETFA, percentage damage on five-point scale” value (from here on “PRE Application SETFA, percentage damage”) was 1 (1=0-19%). Also, the “PRE Application ECHCG, percentage damage on five-point scale” value (shortened to “PRE Application ECHCG, percentage damage”) in assay [3] (applied at 500 g/h) is recorded as 3 (3=40-59%). In addition, the “PRE Application ABUTH, percentage damage on five-point scale” value (“PRE Application ABUTH, percentage damage” below) in assay [4] (applied at 500 g/h) is listed as 5 (5=80-100%). Moreover, the “PRE Application IPOHE, percentage damage on five-point scale” value (from here on “PRE Application IPOHE, percentage damage”) in [5] (applied) is recorded as 1 (1=0-19%). In addition, the “POST Application AMARE, percentage damage on five-point scale” value in assay [6] (applied at 500 g/h) is given as 5 (5=80-100%). In the assay on Setaria faberi (SETFA) [7] (applied at 500 g/h), the “POST Application SETFA, percentage damage on five-point scale” value is reported as 4 (4=60-79%). Further, the “POST Application ECHCG, percentage damage on five-point scale” value in assay [8] (applied at 500 g/h) is reported as 5 (5=80-100%). Besides, the “POST Application ABUTH, percentage damage on five-point scale” value in assay [9] (applied at 500 g/h) is listed as 5 (5=80-100%). In addition, in [10] (applied at 500 g/h), the “POST Application IPOHE, percentage damage on five-point scale” value was 5 (5=80-100%).

As to `Cn1nnnc1NC(=O)c1ccc(OCC(F)(F)F)c(NC(=O)C2CC2)c1Cl` [Compound 1.017], the “PRE Application AMARE, percentage damage” value in assay [1] (applied at 500 g/h) is 5 (5=80-100%). The “PRE Application SETFA, percentage damage” value in the assay with Setaria faberi (SETFA) [2] (applied at 500 g/h) is 5 (5=80-100%). The “PRE Application ECHCG, percentage damage” value in assay [3] (applied at 500 g/h) was 5 (5=80-100%). Also, in assay [4] (applied at 500 g/h), the “PRE Application ABUTH, percentage damage” value is listed as 5 (5=80-100%). Besides, the “PRE Application IPOHE, percentage damage” value in assay [5] (applied) was 5 (5=80-100%). Moreover, in assay [6] (applied at 500 g/h), the “POST Application AMARE, percentage damage on five-point scale” value is 5 (5=80-100%). In addition, the “POST Application SETFA, percentage damage on five-point scale” value in the assay on Setaria faberi (SETFA) [7] (applied at 500 g/h) was 5 (5=80-100%). Further, the “POST Application ECHCG, percentage damage on five-point scale” value in [8] (applied at 500 g/h) is reported as 5 (5=80-100%). Besides, in assay [9] (applied at 500 g/h), the “POST Application ABUTH, percentage damage on five-point scale” value is 4 (4=60-79%). Besides, the “POST Application IPOHE, percentage damage on five-point scale” value in assay [10] (applied at 500 g/h) was 5 (5=80-100%).

With `Cn1nnnc1NC(=O)c1ccc(OC(F)(F)F)c(NC(=O)C2CC2)c1Cl` [Compound 1.006, 2-chloro-3-(cyclopropanecarbonylamino)-N-(1-methyltetrazol-5-yl)-4-(trifluoromethoxy)benzamide], in [1] (applied at 500 g/h), the “PRE Application AMARE, percentage damage” value is 5 (5=80-100%). Also, the “PRE Application SETFA, percentage damage” value in the assay with Setaria faberi (SETFA) [2] (applied at 500 g/h) is given as 5 (5=80-100%). In assay [3] (applied at 500 g/h), the “PRE Application ECHCG, percentage damage” value was 5 (5=80-100%). In assay [4] (applied at 500 g/h), the “PRE Application ABUTH, percentage damage” value is recorded as 5 (5=80-100%). The “PRE Application IPOHE, percentage damage” value in assay [5] (applied) was 2 (2=20-39%). The “POST Application AMARE, percentage damage on five-point scale” value in assay [6] (applied at 500 g/h) is 5 (5=80-100%). In addition, the “POST Application SETFA, percentage damage on five-point scale” value in the assay with Setaria faberi (SETFA) [7] (applied at 500 g/h) is recorded as 5 (5=80-100%). Further, the “POST Application ECHCG, percentage damage on five-point scale” value in assay [8] (applied at 500 g/h) is 5 (5=80-100%). In addition, the “POST Application ABUTH, percentage damage on five-point scale” value in [9] (applied at 500 g/h) was 5 (5=80-100%). For the same compound, the “POST Application IPOHE, percentage damage on five-point scale” value in assay [10] (applied at 500 g/h) is recorded as 5 (5=80-100%).

For the compound `Cn1nnnc1NC(=O)c1ccc(OC(F)F)c(NC(=O)c2ncccc2F)c1Cl` [Compound 1.100], the “PRE Application AMARE, percentage damage” value in assay [1] (applied at 125 g/ha) is recorded as 5 (5=80-100%). Moreover, in the assay on Setaria faberi (SETFA) [2] (applied at 125 g/ha), the “PRE Application SETFA, percentage damage” value was 3 (3=40-59%). In addition, the “PRE Application ECHCG, percentage damage” value in assay [3] (applied at 125 g/ha) is 1 (1=0-19%). Further, in assay [4] (applied at 125 g/ha), the “PRE Application ABUTH, percentage damage” value was 5 (5=80-100%). Also, the “PRE Application IPOHE, percentage damage” value in assay [5] (applied at 125 g/ha) is reported as 2 (2=20-39%). Also, in assay [6] (applied at 125 g/ha), the “POST Application AMARE, percentage damage on five-point scale” value is given as 4 (4=60-79%). The “POST Application SETFA, percentage damage on five-point scale” value in the assay on Setaria faberi (SETFA) [7] (applied at 125 g/ha) is 4 (4=60-79%). For the same compound, the “POST Application ECHCG, percentage damage on five-point scale” value in assay [8] (applied at 125 g/ha) is 4 (4=60-79%). The “POST Application ABUTH, percentage damage on five-point scale” value in [9] (applied at 125 g/ha) is 4 (4=60-79%). Further, the “POST Application IPOHE, percentage damage on five-point scale” value in assay [10] (applied at 125 g/ha) was 4 (4=60-79%).

Take `Cc1cc(C(=O)Nc2c(OC(F)(F)F)ccc(C(=O)Nc3nnnn3C)c2Cl)no1` [Compound 1.011]: the “PRE Application AMARE, percentage damage” value in assay [1] (applied at 500 g/h) is 5 (5=80-100%). Besides, the “PRE Application SETFA, percentage damage” value in the assay on Setaria faberi (SETFA) [2] (applied at 500 g/h) is listed as 1 (1=0-19%). Besides, the “PRE Application ECHCG, percentage damage” value in [3] (applied at 500 g/h) was 1 (1=0-19%). Also, the “PRE Application ABUTH, percentage damage” value in assay [4] (applied at 500 g/h) is given as 4 (4=60-79%). In assay [5] (applied), the “PRE Application IPOHE, percentage damage” value is given as 4 (4=60-79%). The “POST Application AMARE, percentage damage on five-point scale” value in assay [6] (applied at 500 g/h) is on record as 5 (5=80-100%). Besides, in the assay on Setaria faberi (SETFA) [7] (applied at 500 g/h), the “POST Application SETFA, percentage damage on five-point scale” value is on record as 4 (4=60-79%). In assay [8] (applied at 500 g/h), the “POST Application ECHCG, percentage damage on five-point scale” value is recorded as 5 (5=80-100%). Also, the “POST Application ABUTH, percentage damage on five-point scale” value in assay [9] (applied at 500 g/h) was 5 (5=80-100%). Further, the “POST Application IPOHE, percentage damage on five-point scale” value in assay [10] (applied at 500 g/h) is 5 (5=80-100%).
